Counter-ions that a name gives are not always drawn. Like-named read-outs stand apart in the source and are kept apart here.
Assays:
[1] = Kinetic solubility determination in PBS; format: physicochemical; conditions: PBS 1X pH 7.4, 2.0% DMSO, 24 hour incubation at ambient temperature; for solubility at 24 h: phosphate buffered saline (PBS 1×), 21 °C, pH 7.4, aqueous buffer, kinetic from dmso stock
Procedure, shortened: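 DMSO stocks were diluted into PBS (1×) pH 7.4 to 2.0% final DMSO and a maximum theoretical concentration of typically 200 μM. After 24 hour incubation at ambient temperature (20.5-21.7° C.), samples were vacuum filtered. The filtrate was quantified by chemiluminescent nitrogen detection against a nitrogen calibration curve, with background-corrected values given in μM and μg/mL.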

human Granzyme B (hGzmB) = molecular target: T1, human Granzyme B (hGzmB) (Homo sapiens, UniProt P10144); experiment: Human Granzyme B enzymatic inhibition assay (fluorogenic, kinetic); format: biochemical; conditions: activity codes, Table 7; read-out: IC50 Activity Range
T1 construct: purchased Froelich Lab, Northshore University Health Systems Research Institute, Evanston, Ill., USA
T1 sequence (P10144 21-247): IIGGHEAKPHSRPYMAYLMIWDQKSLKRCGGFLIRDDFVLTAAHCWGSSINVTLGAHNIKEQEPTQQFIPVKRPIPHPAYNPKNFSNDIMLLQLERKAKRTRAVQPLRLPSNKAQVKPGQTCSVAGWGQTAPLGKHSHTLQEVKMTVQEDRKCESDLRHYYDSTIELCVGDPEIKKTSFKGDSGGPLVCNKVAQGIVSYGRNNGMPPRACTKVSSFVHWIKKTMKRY
Procedure, shortened: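 Human Granzyme B preincubated with compound for 30 min total (5 min shaking, 20 min bench, then reaction temperature). Fluorogenic substrate added and read kinetically, 25 cycles at 1-min intervals. Percent inhibition at one or two concentrations or 8–12-point 3-fold dose response from 20 uM, replicates, with IC50 by non-linear regression.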

[2] = read-out: Solubility in aqueous PBS Buffer (1X, pH 7.4)
[3] = read-out: Solubility in aqueous PBS Buffer (1X, pH 7.4), ug/mL

Compound	solubility at 24 h [1, 2]	solubility at 24 h [1, 3]	IC50 (human Granzyme B (hGzmB))	Solubility in aqueous PBS Buffer (1X, pH 7.4), uM [1]	Solubility in aqueous PBS Buffer (1X, pH 7.4), ug/mL [1]
CC[C@H](C)[C@H](NC(=O)C(F)(F)C(F)(F)C(=O)O)C(=O)NCC(=O)N1c2ccccc2C[C@H]1C(=O)NCc1nn[nH]n1 [Example A43, 2,2,3,3-Tetrafluoro-3-{[(1S,2S)-2-Methyl-1-({2-Oxo-2-[(2S)-2-[(2H-1,2,3,4-Tetrazol-5-Ylmethyl)Carbamoyl]-2,3-Dihydro-1H-Indol-1-Yl]Ethyl}Carbamoyl)Butyl]Carbamoyl}Propanoic Acid]	583 µM	342 µg/mL	< 100 nM	–	–
CC[C@H](C)[C@H](NC(=O)Cc1csc(N)n1)C(=O)NCC(=O)N1c2ccccc2C[C@H]1C(=O)NCc1nn[nH]n1 [Example A10, (2S)-1-{2-[(2S,3S)-2-[2-(2-Amino-1,3-Thiazol-4-Yl)Acetamido]-3-Methylpentanamido]Acetyl}-N-(2H-1,2,3,4-Tetrazol-5-Ylmethyl)-2,3-Dihydro-1H-Indole-2-Carboxamide Hydrochloride]	> 750 µM	> 443 µg/mL	100 to 1000 nM	–	–
CC[C@H](C)[C@H](NC(=O)Cc1ccccc1)C(=O)N[C@@H](CCC(=O)O)C(=O)N1c2ccccc2C[C@H]1C(=O)NCc1nn[nH]n1 [Example C13, (4S)-4-[(2S,3S)-3-Methyl-2-(2-Phenylacetamido)Pentanamido]-5-Oxo-5-[(2S)-2-[(2H-1,2,3,4-Tetrazol-5-Ylmethyl)Carbamoyl]-2,3-Dihydro-1H-Indol-1-Yl]Pentanoic Acid]	> 750 µM	> 454 µg/mL	100 to 1000 nM	–	–
CC[C@H](C)[C@H](NC(=O)CCC(=O)O)C(=O)NCC(=O)N1c2ccccc2C[C@H]1C(=O)NCc1c[nH]nn1 [Example A16, 3-{[(1S,2S)-2-Methyl-1-({2-Oxo-2-[(2S)-2-[(1H-1,2,3-Triazol-4-Ylmethyl)Carbamoyl]-2,3-Dihydro-1H-Indol-1-Yl]Ethyl}Carbamoyl)Butyl]Carbamoyl}Propanoic Acid]	> 750 µM	> 385 µg/mL	< 100 nM	–	–
CC[C@H](C)[C@H](NC(=O)CN(C)CC(=O)O)C(=O)NCC(=O)N1c2ccccc2C[C@H]1C(=O)NCc1nn[nH]n1 [Example A44, 2-[Methyl({[(1S,2S)-2-Methy-1-({2-Oxo-2-[(2S)-2-[(2H-1,2,3,4-Tetrazol-5-Ylmethyl)Carbamoyl]-2,3-Dihydro-1H-Indol-1-Yl]Ethyl}Carbamoyl)Butyl]Carbamoyl}Methyl)Amino]Acetic Acid]	724 µM	467 µg/mL	100 to 1000 nM	–	–
CC[C@H](C)[C@H](NC(=O)Cc1ccccc1)C(=O)NCC(=O)N1c2ccccc2C[C@H]1C(=O)NCc1c[nH]nn1 [Example B1, (2S)-1-{2-[(2S,3S)-3-Methyl-2-(2-Phenylacetamido)Pentanamido]Acetyl}-N-(1H-1,2,3-Triazol-4-Ylmethyl)-2,3-Dihydro-1H-Indole-2-Carboxamide]	97 µM	62 µg/mL	100 to 1000 nM	–	–
CC(C)[C@H](NC(=O)Cc1ccccc1)C(=O)NCC(=O)N1c2ccccc2C[C@H]1C(=O)NCc1nn[nH]n1 [Example C1, (2S)-1-{2-[(2S)-3-Methyl-2-(2-Phenylacetamido)Butanamido]Acetyl}-N-(2H-1,2,3,4-Tetrazol-5-Ylmethyl)-2,3-Dihydro-1H-Indole-2-Carboxamide]	> 150 µM	> 78 µg/mL	100 to 1000 nM	–	–
CC[C@H](C)[C@H](NC(=O)C1CCCCC1C(=O)O)C(=O)NCC(=O)N1c2ccccc2C[C@H]1C(=O)NCc1nn[nH]n1 (single isomer, unassigned) [Example A20-2]	–	–	< 100 nM	641 uM	429 ug/mL
CC[C@H](C)[C@H](NC(=O)Cc1ccccc1)C(=O)N[C@@H](C)C(=O)N1c2ccccc2C[C@H]1C(=O)NCc1nn[nH]n1 [Example C11, (2S)-1-[(2S)-2-[(2S,3S)-3-Methyl-2-(2-Phenylacetamido)Pentanamido]Propanoyl]-N-(2H-1,2,3,4-Tetrazol-5-Ylmethyl)-2,3-Dihydro-1H-Indole-2-Carboxamide]	125 µM	68 µg/mL	1000 to 10000 nM	–	–
CC(C)[C@H](NC(=O)CCC(=O)O)C(=O)NCC(=O)N1c2ccccc2C[C@H]1C(=O)NCc1nn[nH]n1 [Example A46, 3-{[(1S)-2-Methyl-1-({2-Oxo-2-[(2S)-2-[(2H-1,2,3,4-Tetrazol-5-Ylmethyl)Carbamoyl]-2,3-Dihydro-1H-Indol-1-Yl]Ethyl}Carbamoyl)Propyl]Carbamoyl}Propanoic Acid]	> 750 µM	> 375 µg/mL	< 100 nM	–	–
CC[C@H](C)[C@H](NC(=O)C(CCC(=O)O)c1ccccc1)C(=O)NCC(=O)N1c2ccccc2C[C@H]1C(=O)NCc1nn[nH]n1 (single isomer, unassigned) [Example A54-2]	–	–	< 100 nM	>750 uM	>454 ug/mL
CC[C@H](C)[C@H](NC(=O)/C=C\C(=O)O)C(=O)NCC(=O)N1c2ccccc2C[C@H]1C(=O)NCc1nn[nH]n1 [Example A24, (2Z)-3-{[(1S,2S)-2-Methyl-1-({2-Oxo-2-[(2S)-2-[(2H-1,2,3,4-Tetrazol-5-Ylmethyl)Carbamoyl]-2,3-Dihydro-1H-Indol-1-Yl]Ethyl}Carbamoyl)Butyl]Carbamoyl}Prop-2-Enoic Acid]	719 µM	441 µg/mL	< 100 nM	–	–
CC[C@H](C)[C@H](NC(=O)C(C)(C)CCC(=O)O)C(=O)NCC(=O)N1c2ccccc2C[C@H]1C(=O)NCc1nn[nH]n1 [Example A55, 4,4-Dimethyl-4-{[(1S,2S)-2-Methyl-1-({2-Oxo-2-[(2S)-2-[(2H-1,2,3,4-Tetrazol-5-Ylmethyl)Carbamoyl]-2,3-Dihydro-1H-Indol-1-Yl]Ethyl}Carbamoyl)Butyl]Carbamoyl}Butanoic Acid]	> 750 µM	> 418 µg/mL	< 100 nM	–	–
CC[C@H](C)[C@H](NC(=O)c1ccccc1C(=O)O)C(=O)NCC(=O)N1c2ccccc2C[C@H]1C(=O)NCc1nn[nH]n1 [Example A25, 2-{[(1S,2S)-2-Methyl-1-({2-Oxo-2-[(2S)-2-[(2H-1,2,3,4-Tetrazol-5-Ylmethyl)Carbamoyl]-2,3-Dihydro-1H-Indol-1-Yl]Ethyl}Carbamoyl)Butyl]Carbamoyl}Benzoic Acid]	696 µM	462 µg/mL	< 100 nM	–	–
CC[C@H](C)[C@H](NC(=O)CCC(C)(C)C(=O)O)C(=O)NCC(=O)N1c2ccccc2C[C@H]1C(=O)NCc1nn[nH]n1 [Example A52, 2,2-Dimethyl-4-{[(1S,2S)-2-Methyl-1-({2-Oxo-2-[(2S)-2-[(2H-1,2,3,4-Tetrazol-5-Ylmethyl)Carbamoyl]-2,3-Dihydro-1H-Indol-1-Yl]Ethyl}Carbamoyl)Butyl]Carbamoyl}Butanoic Acid]	> 750 µM	> 418 µg/mL	< 100 nM	–	–
CC[C@H](C)[C@H](NC(=O)CCCC(=O)O)C(=O)NCC(=O)N1c2ccccc2C[C@H]1C(=O)NCc1nn[nH]n1 [Example A14, 4-{[(1S,2S)-2-Methyl-1-({2-Oxo-2-[(2S)-2-[(2H-1,2,3,4-Tetrazol-5-Ylmethyl)Carbamoyl]-2,3-Dihydro-1H-Indol-1-Yl]Ethyl}Carbamoyl)Butyl]Carbamoyl}Butanoic Acid]	107 µM	57 µg/mL	< 100 nM	–	–

Source: patent US10329324B2 (viDA Therapeutics Inc., priority 2013, dated 2019)
